Source: patent US10118930B2, “Piperidinylpyrazolopyrimidinones and their use” (BAYER PHARMA AKTIENGESELLSCHAFT, priority 2015, dated 2018)
Structures can show the parent of a compound that is named as a salt.

System: clot lysis (fibrinolysis) in diluted human citrated plasma, tPA-induced
Assay: Plasma-based clot lysis assay (5%)
Type: biochemical
Conditions: human citrated platelet-poor plasma 5%, fibrinogen 3 μM, CaCl2 10 mM, tPA 0.2 nM, 37° C., OD at 405 nm
Outline: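 Clot formation and breakdown triggered by CaCl2 (10 mM final) plus tPA (0.2 nM final) at 37° C, in 5% diluted human plasma supplemented with 3 μM fibrinogen (HEPES/NaCl/Brij buffer, pH 7). IC50 obtained from time courses relative to a blank control.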

SMILES	IC50 [nM]
Cc1c(Cl)cccc1-c1noc(-c2cnn3c(C4CCNCC4)cc(=O)[nH]c23)n1 [Example 140, 3-[3-(3-Chloro-2-methylphenyl)-1,2,4-oxadiazol-5-yl]-7-(piperidin-4-yl)pyrazolo[1,5-a]pyrimidin-5(4H)-one hydrochloride]	130
Cc1ccc(Cl)cc1-c1noc(-c2cnn3c(C4CCNCC4)cc(=O)[nH]c23)n1 [Example 141, 3-[3-(5-Chloro-2-methylphenyl)-1,2,4-oxadiazol-5-yl]-7-(piperidin-4-yl)pyrazolo[1,5-a]pyrimidin-5(4H)-one hydrochloride]	74
COc1ccc(-c2noc(-c3cnn4c(C5CCNCC5)cc(=O)[nH]c34)n2)cc1Cl [Example 142, 3-[3-(3-Chloro-4-methoxyphenyl)-1,2,4-oxadiazol-5-yl]-7-(piperidin-4-yl)pyrazolo[1,5-a]pyrimidin-5(4H)-one hydrochloride]	41
O=c1cc(C2CCNCC2)n2ncc(-c3nc(-c4cccc(Cl)c4Cl)no3)c2[nH]1 [Example 143, 3-[3-(2,3-Dichlorophenyl)-1,2,4-oxadiazol-5-yl]-7-(piperidin-4-yl)pyrazolo[1,5-a]pyrimidin-5 (4H)-one hydrochloride]	41
O=c1cc(C2CCNCC2)n2ncc(-c3nc(-c4cc(Cl)ccc4C(F)(F)F)no3)c2[nH]1 [Example 145, 3-{3-[5-Chloro-2-(trifluoromethyl)phenyl]-1,2,4-oxadiazol-5-yl}-7-(piperidin-4-yl)pyrazolo[1,5-a]pyrimidin-5(4H)-one hydrochloride]	28
O=c1cc(C2CCNCC2)n2ncc(-c3nc(-c4cccc(C(F)(F)F)n4)no3)c2[nH]1 [Example 146, 7-(Piperidin-4-yl)-3-{3-[6-(trifluoromethyl)pyridin-2-yl]-1,2,4-oxadiazol-5-yl}pyrazolo[1,5-a]pyrimidin-5(4H)-one hydrochloride]	35
O=c1cc(C2CCNCC2)n2ncc(-c3nc(-c4cc(C(F)(F)F)ccn4)no3)c2[nH]1 [Example 147, 7-(piperidin-4-yl)-3-{3-[4-(trifluoromethyl)pyridin-2-yl]-1,2,4-oxadiazol-5-yl}pyrazolo[1,5-a]pyrimidin-5(4H)-one hydrochloride]	38
O=c1cc(C2CCNCC2)n2ncc(-c3nc(-c4cccnc4Cl)no3)c2[nH]1 [Example 148, 3-[3-(2-Chloropyridin-3-yl)-1,2,4-oxadiazol-5-yl]-7-(piperidin-4-yl)pyrazolo[1,5-a]pyrimidin-5(4H)-one hydrochloride]	43
O=c1cc(C2CCNCC2)n2ncc(-c3nc(-c4ccc(OC(F)(F)F)c(Cl)c4)no3)c2[nH]1 [Example 149, 3-{3-[3-Chloro-4-(trifluoromethoxy)phenyl]-1,2,4-oxadiazol-5-yl}-7-(piperidin-4-yl)pyrazolo[1,5-a]pyrimidin-5(4H)-one hydrochloride]	100
O=c1cc(C2CCNCC2)n2ncc(-c3nc(-c4c(Cl)cc(C(F)(F)F)cc4Cl)no3)c2[nH]1 [Example 150, 3-{3-[2,6-Dichloro-4-(trifluoromethyl)phenyl]-1,2,4-oxadiazol-5-yl}-7-(piperidin-4-yl)pyrazolo[1,5-a]pyrimidin-5(4H)-one hydrochloride]	45
O=c1cc(C2CCNCC2)n2ncc(-c3nc(-c4cc(Cl)cc(Cl)c4)no3)c2[nH]1 [Example 151, 3-[3-(3,5-Dichlorophenyl)-1,2,4-oxadiazol-5-yl]-7-(piperidin-4-yl)pyrazolo[1,5-a]pyrimidin-5 (4H)-one hydrochloride]	44
O=c1cc(C2CCNCC2)n2ncc(-c3nc(-c4ccc(C(F)(F)F)cc4C(F)(F)F)no3)c2[nH]1 [Example 152, 3-{3-[2,4-Bis(trifluoromethyl)phenyl]-1,2,4-oxadiazol-5-yl}-7-(piperidin-4-yl)pyrazolo[1,5-a]pyrimidin-5(4H)-one hydrochloride]	43
COc1ccc(-c2noc(-c3cnn4c(C5CCNCC5)cc(=O)[nH]c34)n2)c(C)c1 [Example 154, 3-[3-(4-methoxy-2-methylphenyl)-1,2,4-oxadiazol-5-yl]-7-(piperidin-4-yl)pyrazolo[1,5-a]pyrimidin-5(4H)-one hydrochloride]	24
O=c1cc(C2CCNCC2)n2ncc(-c3nc(-c4ccc(Cl)cc4)no3)c2[nH]1 [Example 157, 3-[3-(4-chlorophenyl)-1,2,4-oxadiazol-5-yl]-7-(piperidin-4-yl)pyrazolo[1,5-a]pyrimidin-5 (4H)-one hydrochloride]	56
O=c1cc(C2CCNCC2)n2ncc(-c3nc(-c4ccc(F)cc4F)no3)c2[nH]1 [Example 158, 3-[3-(2,4-difluorophenyl)-1,2,4-oxadiazol-5-yl]-7-(piperidin-4-yl)pyrazolo[1,5-a]pyrimidin-5(4H)-one hydrochloride]	38
O=c1cc(C2CCNCC2)n2ncc(-c3nc(-c4ccccc4F)no3)c2[nH]1 [Example 159, 3-[3-(2-fluorophenyl)-1,2,4-oxadiazol-5-yl]-7-(piperidin-4-yl)pyrazolo[1,5-a]pyrimidin-5(4H)-one hydrochloride]	23

SMILES	IC50 [nM]
COc1ccccc1-c1noc(-c2cnn3c(C4CCNCC4)cc(=O)[nH]c23)n1 [Example 160, 3-[3-(2-methoxyphenyl)-1,2,4-oxadiazol-5-yl]-7-(piperidin-4-yl)pyrazolo[1,5-a]pyrimidin-5(4H)-one hydrochloride]	73
O=c1cc(C2CCNCC2)n2ncc(-c3cccc(-c4ccc(C(F)(F)F)cc4)c3)c2[nH]1 [Example 162, 7-(piperidin-4-yl)-3-[4′-(trifluoromethyl)biphenyl-3-yl]pyrazolo[1,5-a]pyrimidin-5(4H)-one hydrochloride]	140
O=c1cc(C2CCNCC2)n2ncc(-c3nc(-c4cccc(Cl)c4)cs3)c2[nH]1 [Example 163, 3-[4-(3-chlorophenyl)-1,3-thiazol-2-yl]-7-(piperidin-4-yl)pyrazolo[1,5-a]pyrimidin-5 (4H)-one hydrochloride]	40
CC(C)(C)c1nnc(-c2cnn3c(C4CCNCC4)cc(=O)[nH]c23)o1 [Example 165, 3-(5-tert-butyl-1,3,4-oxadiazol-2-yl)-7-(piperidin-4-yl)pyrazolo[1,5-a]pyrimidin-5 (4H)-one hydrochloride]	34
O=c1cc(C2CCNCC2)n2ncc(-c3nnc(-c4ccc(C(F)(F)F)cc4)o3)c2[nH]1 [Example 166, 7-(piperidin-4-yl)-3-{5-[4-(trifluoromethyl)phenyl]-1,3,4-oxadiazol-2-yl}pyrazolo[1,5-a]pyrimidin-5(4H)-one hydrochloride]	8.7
N#Cc1ccc(-c2nnc(-c3cnn4c(C5CCNCC5)cc(=O)[nH]c34)o2)cc1 [Example 167, 4-{5-[5-oxo-7-(piperidin-4-yl)-4,5-dihydropyrazolo[1,5-a]pyrimidin-3-yl]-1,3,4-oxadiazol-2-yl}benzonitrile hydrochloride]	34
Cn1cncc1-c1nnc(-c2cnn3c(C4CCNCC4)cc(=O)[nH]c23)o1 [Example 168, 3-[5-(1-methyl-1H-imidazol-5-yl)-1,3,4-oxadiazol-2-yl]-7-(piperidin-4-yl)pyrazolo[1,5-a]pyrimidin-5(4H)-one hydrochloride]	33
Cc1ccc(-c2nnc(-c3cnn4c(C5CCNCC5)cc(=O)[nH]c34)o2)cc1 [Example 170, 3-[5-(4-methylphenyl)-1,3,4-oxadiazol-2-yl]-7-(piperidin-4-yl)pyrazolo[1,5-a]pyrimidin-5 (4H)-one hydrochloride]	34
O=c1cc(C2CCNCC2)n2ncc(-c3nnc(-c4ccccc4C(F)(F)F)o3)c2[nH]1 [Example 172, 7-(piperidin-4-yl)-3-{5-[2-(trifluoromethyl)phenyl]-1,3,4-oxadiazol-2-yl}pyrazolo[1,5-a]pyrimidin-5(4H)-one hydrochloride]	59
COCc1nnc(-c2cnn3c(C4CCNCC4)cc(=O)[nH]c23)o1 [Example 173, 3-[5-(methoxymethyl)-1,3,4-oxadiazol-2-yl]-7-(piperidin-4-yl)pyrazolo[1,5-a]pyrimidin-5(4H)-one hydrochloride]	34
O=c1cc(C2CCNCC2)n2ncc(-c3nnc(C4CC4)o3)c2[nH]1 [Example 174, 3-(5-cyclopropyl-1,3,4-oxadiazol-2-yl)-7-(piperidin-4-yl)pyrazolo[1,5-a]pyrimidin-5 (4H)-one hydrochloride]	34
O=c1cc(C2CCNCC2)n2ncc(-c3nnc(-c4cccc(C(F)(F)F)c4)o3)c2[nH]1 [Example 175, 7-(piperidin-4-yl)-3-{5-[3-(trifluoromethyl)phenyl]-1,3,4-oxadiazol-2-yl}pyrazolo[1,5-a]pyrimidin-5(4H)-one hydrochloride]	35
O=c1cc(C2CCNCC2)n2ncc(-c3nnc(C4CCCC4)o3)c2[nH]1 [Example 177, 3-(5-cyclopentyl-1,3,4-oxadiazol-2-yl)-7-(piperidin-4-yl)pyrazolo[1,5-a]pyrimidin-5(4H)-one hydrochloride]	40
O=c1cc(C2CCNCC2)n2ncc(-c3nnc(-c4ccco4)o3)c2[nH]1 [Example 178, 3-[5-(2-furyl)-1,3,4-oxadiazol-2-yl]-7-(piperidin-4-yl)pyrazolo[1,5-a]pyrimidin-5 (4H)-one hydrochloride]	34
CC(C)(C)c1ccc(-c2nnc(-c3cnn4c(C5CCNCC5)cc(=O)[nH]c34)o2)cc1 [Example 179, 3-[5-(4-tert-butylphenyl)-1,3,4-oxadiazol-2-yl]-7-(piperidin-4-yl)pyrazolo[1,5-a]pyrimidin-5 (4H)-one hydrochloride]	37
O=c1cc(C2CCNCC2)n2ncc(-c3nnc(Cc4ccccc4)o3)c2[nH]1 [Example 180, 3-(5-benzyl-1,3,4-oxadiazol-2-yl)-7-(piperidin-4-yl)pyrazolo[1,5-a]pyrimidin-5(4H)-one hydrochloride]	35
